Key:
Assay in all cases: relative viability (nuclei count vs DMSO), 5 days (fraction); higher = more cells survive
Tozasertib = compound: Cc1cc(Nc2cc(N3CCN(C)CC3)nc(Sc3ccc(NC(=O)C4CC4)cc3)n2)n[nH]1 [Tozasertib]
How it was run: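 Following overnight incubation at 37 °C, lung cancer cell lines in 1536-well plates were pinned with five library-drug doses (not always all listed) in √10 steps on vehicle-anchored plates. The cells then spent 5 days without medium change before a combined fix, permeabilisation and Hoechst stain, 4× imaging and MetaXpress nuclear counts. Viability is the treated-to-vehicle ratio of nuclei, taken as the median across plates. Only plates with control CV below 25% and at least one doubling passed.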

Tozasertib + Lapatinib = compound: Cc1cc(Nc2cc(N3CCN(C)CC3)nc(Sc3ccc(NC(=O)C4CC4)cc3)n2)n[nH]1 [Tozasertib] + CS(=O)(=O)CCNCc1ccc(-c2ccc3ncnc(Nc4ccc(OCc5cccc(F)c5)c(Cl)c4)c3c2)o1 [Lapatinib] (partner 2 µM)
How it was run: (§1)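 Relative viability is defined as nuclei in treated wells over nuclei in vehicle wells. Duplicate plates were run and medians reported. Lung cancer cell lines in 1536-well plates were dosed by pin tool one day after seeding, with one drug or with a fixed anchor-drug dose plus five library-drug doses (not always all listed) in √10 steps, and nuclei were counted after 5 days.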

Tozasertib + Olaparib = compound: Cc1cc(Nc2cc(N3CCN(C)CC3)nc(Sc3ccc(NC(=O)C4CC4)cc3)n2)n[nH]1 [Tozasertib] + O=C(c1cc(Cc2n[nH]c(=O)c3ccccc23)ccc1F)N1CCN(C(=O)C2CC2)CC1 [Olaparib] (partner 8 µM)
How it was run: as §1

Tozasertib + Bortezomib = compound: Cc1cc(Nc2cc(N3CCN(C)CC3)nc(Sc3ccc(NC(=O)C4CC4)cc3)n2)n[nH]1 [Tozasertib] + CC(C)C[C@H](NC(=O)[C@H](Cc1ccccc1)NC(=O)c1cnccn1)B(O)O [Bortezomib] (partner 0.002 µM)
How it was run: as §1

Tozasertib + Crizotinib = compound: Cc1cc(Nc2cc(N3CCN(C)CC3)nc(Sc3ccc(NC(=O)C4CC4)cc3)n2)n[nH]1 [Tozasertib] + C[C@@H](Oc1cc(-c2cnn(C3CCNCC3)c2)cnc1N)c1c(Cl)ccc(F)c1Cl [Crizotinib] (partner 1 µM)
How it was run: as §1

Tozasertib + Navitoclax = compound: Cc1cc(Nc2cc(N3CCN(C)CC3)nc(Sc3ccc(NC(=O)C4CC4)cc3)n2)n[nH]1 [Tozasertib] + CC1(C)CCC(c2ccc(Cl)cc2)=C(CN2CCN(c3ccc(C(=O)NS(=O)(=O)c4ccc(N[C@H](CCN5CCOCC5)CSc5ccccc5)c(S(=O)(=O)C(F)(F)F)c4)cc3)CC2)C1 [Navitoclax] (partner 0.5 µM)
How it was run: as §1

Tozasertib + Linsitinib = compound: Cc1cc(Nc2cc(N3CCN(C)CC3)nc(Sc3ccc(NC(=O)C4CC4)cc3)n2)n[nH]1 [Tozasertib] + C[C@]1(O)C[C@@H](c2nc(-c3ccc4ccc(-c5ccccc5)nc4c3)c3c(N)nccn32)C1 [Linsitinib] (partner 1 µM)
How it was run: as §1

Tozasertib + Foretinib = compound: Cc1cc(Nc2cc(N3CCN(C)CC3)nc(Sc3ccc(NC(=O)C4CC4)cc3)n2)n[nH]1 [Tozasertib] + COc1cc2c(Oc3ccc(NC(=O)C4(C(=O)Nc5ccc(F)cc5)CC4)cc3F)ccnc2cc1OCCCN1CCOCC1 [Foretinib] (partner 0.25 µM)
How it was run: as §1

Tozasertib + Alpelisib = compound: Cc1cc(Nc2cc(N3CCN(C)CC3)nc(Sc3ccc(NC(=O)C4CC4)cc3)n2)n[nH]1 [Tozasertib] + Cc1nc(NC(=O)N2CCC[C@H]2C(N)=O)sc1-c1ccnc(C(C)(C)C(F)(F)F)c1 [Alpelisib] (partner 2 µM)
How it was run: as §1

Tozasertib + Pictilisib = compound: Cc1cc(Nc2cc(N3CCN(C)CC3)nc(Sc3ccc(NC(=O)C4CC4)cc3)n2)n[nH]1 [Tozasertib] + CS(=O)(=O)N1CCN(Cc2cc3nc(-c4cccc5[nH]ncc45)nc(N4CCOCC4)c3s2)CC1 [Pictilisib] (partner 1 µM)
How it was run: as §1

Tozasertib + Vorinostat = compound: Cc1cc(Nc2cc(N3CCN(C)CC3)nc(Sc3ccc(NC(=O)C4CC4)cc3)n2)n[nH]1 [Tozasertib] + O=C(CCCCCCC(=O)Nc1ccccc1)NO [Vorinostat] (partner 1 µM)
How it was run: as §1

Row | Cell Line | relative viability (Tozasertib; 0.004 µM) | relative viability (Tozasertib; 0.01265 µM) | relative viability (Tozasertib; 0.04 µM) | relative viability (Tozasertib; 0.1265 µM) | relative viability (Tozasertib + Lapatinib; first compound 0.004 µM) | relative viability (Tozasertib + Lapatinib; first compound 0.01265 µM) | relative viability (Tozasertib + Lapatinib; first compound 0.04 µM) | relative viability (Tozasertib + Lapatinib; first compound 0.1265 µM) | relative viability (Tozasertib + Olaparib; first compound 0.004 µM) | relative viability (Tozasertib + Olaparib; first compound 0.01265 µM) | relative viability (Tozasertib + Olaparib; first compound 0.04 µM) | relative viability (Tozasertib + Olaparib; first compound 0.1265 µM) | relative viability (Tozasertib + Bortezomib; first compound 0.004 µM) | relative viability (Tozasertib + Bortezomib; first compound 0.1265 µM) | relative viability (Tozasertib + Crizotinib; first compound 0.004 µM) | relative viability (Tozasertib + Crizotinib; first compound 0.04 µM) | relative viability (Tozasertib + Crizotinib; first compound 0.1265 µM) | relative viability (Tozasertib + Navitoclax; first compound 0.004 µM) | relative viability (Tozasertib + Navitoclax; first compound 0.01265 µM) | relative viability (Tozasertib + Navitoclax; first compound 0.04 µM) | other results
1 | Calu-6 | 1.06 | 0.953 | 0.998 | 0.546 | 1.17 | 0.983 | 1.08 | 0.293 | 0.557 | 0.516 | 0.595 | 0.293 | 0.987 | 0.391 | 0.796 | 0.433 | 0.265 | 0.85 | 0.88 | 0.779 | relative viability (Tozasertib + Bortezomib; first compound 0.01265 µM): 1.03; relative viability (Tozasertib + Bortezomib; first compound 0.04 µM): 1.08; relative viability (Tozasertib + Navitoclax; first compound 0.1265 µM): 0.153; relative viability (Tozasertib + Linsitinib; first compound 0.004 µM): 0.952; relative viability (Tozasertib + Linsitinib; first compound 0.01265 µM): 0.853; relative viability (Tozasertib + Linsitinib; first compound 0.04 µM): 1; relative viability (Tozasertib + Linsitinib; first compound 0.1265 µM): 0.309; relative viability (Tozasertib + Foretinib; first compound 0.004 µM): 0.946; relative viability (Tozasertib + Foretinib; first compound 0.01265 µM): 0.903; relative viability (Tozasertib + Foretinib; first compound 0.04 µM): 0.69; relative viability (Tozasertib + Foretinib; first compound 0.1265 µM): 0.229; relative viability (Tozasertib + Alpelisib; first compound 0.004 µM): 1.19; relative viability (Tozasertib + Alpelisib; first compound 0.01265 µM): 0.96; relative viability (Tozasertib + Alpelisib; first compound 0.04 µM): 0.797; relative viability (Tozasertib + Alpelisib; first compound 0.1265 µM): 0.402; relative viability (Tozasertib + Pictilisib; first compound 0.004 µM): 0.946; relative viability (Tozasertib + Pictilisib; first compound 0.01265 µM): 0.862; relative viability (Tozasertib + Pictilisib; first compound 0.04 µM): 0.781; relative viability (Tozasertib + Pictilisib; first compound 0.1265 µM): 0.259
2 | EBC-1 | 1.12 | 1.01 | 1.01 | 0.776 | 0.237 | 0.213 | 0.209 | 0.173 | 0.697 | 0.724 | 0.737 | 0.608 | 0.692 | 0.367 | 0.234 | 0.198 | 0.151 | 0.351 | 0.329 | 0.372 | relative viability (Tozasertib + Bortezomib; first compound 0.01265 µM): 0.461; relative viability (Tozasertib + Bortezomib; first compound 0.04 µM): 0.532; relative viability (Tozasertib + Crizotinib; first compound 0.01265 µM): 0.202; relative viability (Tozasertib + Navitoclax; first compound 0.1265 µM): 0.251; relative viability (Tozasertib + Linsitinib; first compound 0.004 µM): 0.866; relative viability (Tozasertib + Linsitinib; first compound 0.01265 µM): 0.841; relative viability (Tozasertib + Linsitinib; first compound 0.04 µM): 0.886; relative viability (Tozasertib + Linsitinib; first compound 0.1265 µM): 0.486; relative viability (Tozasertib + Foretinib; first compound 0.004 µM): 0.111; relative viability (Tozasertib + Foretinib; first compound 0.01265 µM): 0.0987; relative viability (Tozasertib + Foretinib; first compound 0.04 µM): 0.109; relative viability (Tozasertib + Foretinib; first compound 0.1265 µM): 0.105; relative viability (Tozasertib + Alpelisib; first compound 0.004 µM): 0.814; relative viability (Tozasertib + Alpelisib; first compound 0.01265 µM): 0.801; relative viability (Tozasertib + Alpelisib; first compound 0.1265 µM): 0.578; relative viability (Tozasertib + Pictilisib; first compound 0.004 µM): 0.429; relative viability (Tozasertib + Pictilisib; first compound 0.01265 µM): 0.333; relative viability (Tozasertib + Pictilisib; first compound 0.04 µM): 0.371; relative viability (Tozasertib + Pictilisib; first compound 0.1265 µM): 0.39
3 | IA-LM | 1.06 | 0.819 | 0.954 | 0.795 | 0.967 | 0.838 | 1.13 | 0.479 | 0.976 | 0.909 | 0.779 | 0.814 | 0.794 | 0.849 | 0.784 | 0.817 | 0.851 | 0.969 | 0.784 | 0.767 | relative viability (Tozasertib + Vorinostat; first compound 0.04 µM): 0.855; relative viability (Tozasertib + Vorinostat; first compound 0.1265 µM): 0.854; relative viability (Tozasertib + Crizotinib; first compound 0.01265 µM): 1.05; relative viability (Tozasertib + Navitoclax; first compound 0.1265 µM): 0.797; relative viability (Tozasertib + Linsitinib; first compound 0.004 µM): 0.697; relative viability (Tozasertib + Linsitinib; first compound 0.01265 µM): 0.564; relative viability (Tozasertib + Linsitinib; first compound 0.04 µM): 0.533; relative viability (Tozasertib + Linsitinib; first compound 0.1265 µM): 0.307; relative viability (Tozasertib + Foretinib; first compound 0.004 µM): 1.38; relative viability (Tozasertib + Foretinib; first compound 0.01265 µM): 1.18; relative viability (Tozasertib + Foretinib; first compound 0.04 µM): 1.11; relative viability (Tozasertib + Foretinib; first compound 0.1265 µM): 0.914; relative viability (Tozasertib + Alpelisib; first compound 0.004 µM): 0.715; relative viability (Tozasertib + Alpelisib; first compound 0.01265 µM): 0.753; relative viability (Tozasertib + Alpelisib; first compound 0.04 µM): 0.871; relative viability (Tozasertib + Alpelisib; first compound 0.1265 µM): 0.457; relative viability (Tozasertib + Pictilisib; first compound 0.004 µM): 0.336; relative viability (Tozasertib + Pictilisib; first compound 0.01265 µM): 0.302; relative viability (Tozasertib + Pictilisib; first compound 0.04 µM): 0.457; relative viability (Tozasertib + Pictilisib; first compound 0.1265 µM): 0.265

From the supplement of paper PMC10307832
